{"source": "patent US9592214B2", "about": "“Compounds for the treatment of autism in a baby child” (INSERM (INSTITUT NATIONAL DE LA SANTE ET DE LA RECHERCHE …, priority 2010, dated 2017)", "key": {"[1]": {"test_system": "hippocampal CA3 pyramidal neurons", "assay": "Whole-cell voltage clamp recordings of sEPSCs in offspring after maternal pretreatment", "type": "in vivo, rat", "conditions": "P15 VPA rats, maternal bumetanide pretreatment; −70 mV; result in words", "method": "Standard whole-cell recordings were performed in coronal neocortical rat or mouse brain slices at room temperature (20-22° C.) from the soma of hippocampal CA3 neurons using an EPC-10 (HEKA Elektronik, Germany) amplifier and filtered at 3-10 kHz. The internal solution contained (in mM): 130 K-gluconate, 10 Na-gluconate, 4 NaCl, 4 MgATP, 4 phosphocreatine, 10 HEPES, and 0.3 GTP (pH 7.3 with KOH). Biocytin (final concentration 0.3-0.5%) was added to the pipette solution to label the neurons from which recordings were obtained. Neurons were visualized by using infrared DIC video microscopy. Spontaneous postsynaptic currents were recorded for […] at the reversal potentials for […] currents (−70 mV). It should be specifically noted that all recordings were made in normal ACSF (1.3 mM MgCl2). Stored data were analyzed using the Mini Analysis 6.0.3 (Synaptosoft Inc., Chapell Hill, N.C.) and Origin (MicroCal, Northampton, Mass.) software. To minimize potential sampling bias, the pups from at least three deliveries for each condition were studied. Data are expressed as mean±S.E.M.\nBumetanide (10 μM), Oxytocin (1 μM) and Isoguvacine (2 μM) were directly added to the perfusion solutions. Bumetanide pretreatment (2-2.5 mg/kg) was given to the dams in drinking water. All drugs used were purchased from Sigma. […]"}, "[2]": {"test_system": "hippocampal CA3 pyramidal cells", "assay": "DFGABA in hippocampal CA3 pyramidal cells of offspring after in utero VPA / maternal bumetanide pretreatment", "type": "in vivo, rat", "conditions": "for DFGABA (mV), mean ± S.E.: P15 VPA rats, maternal bumetanide pretreatment (2-2.5 mg/kg in drinking water, 1 day before delivery)", "method": "Time-mated female Wistar rats at gestational day E7-8 were housed under standard laboratory conditions. The in utero valproic acid (VPA) rodent model of autism spectrum disorders has been previously described in detail. Briefly, the sodium salt of VPA (Sigma-Aldrich) was dissolved in physiological saline solution to a concentration of 300 mg/ml. Pregnant rats received a single intra-peritoneal dose of 600 mg/kg on gestational day 12 (E12). The control dams received a single similar volume injection of saline at the same gestational time-point. Dams were housed individually and allowed to raise their own litters. The offspring were used for experiments on embryonic day 20 (E20) and postnatal (P) days 0, 2, 4, 7, 15 and 30 (after being weaned at P23). Experiments were carried out on offspring of either sex.\nExperiments were performed on fetuses and neonatal rat pups. We removed E20 rats from deeply anesthetized dams [subcutaneous injection of a mixture of xylazine (Rompun 2%; used at 0.05%) and ketamine (Imalgene 1000 used at 50 g/l)]. Hippocampal slices ([…] thick) were prepared using a Microm tissue slicer (International GmbH, Germany) as described previously (Tyzio et al. 2006 Science 314, 1788; Tyzio et al, 2008, Eur J. Neurosci. 27(10):2515-28). Slices were kept in oxygenated (95% O2/5% CO2) artificial cerebrospinal fluid (ACSF) of the following composition (in mM): NaCl 126, KCl 3.5, CaCl2 2.0, MgCl2 1.3, NaHCO3 25, NaH2PO4 1.2 and glucose 11 (pH 7.4) at room temperature (20-22° C.) at least 1 hour before use.\nFor recordings, slices were placed into a conventional fully submerged chamber superfused with ACSF at a rate of 2-3 ml/min at room temperature. Patch clamp recordings from visually identified CA3 pyramidal cells in cell-attached configuration were performed using EPC-10 amplifier (HEKA Elektronik Dr. Schulze GmbH, Lambrecht/Pfalz, Germany). Patch pipette solution for recordings of single GABAA channels contained (in mM): NaCl 120, KCl 5, TEA-Cl 20, 4-aminopyridine 5, CaCl2 0.1, MgCl2 10, glucose 10, Hepes-NaOH 10 buffered to pH 7.2-7.3 and GABA 2 μM. Analysis of currents through single channels and current-voltage relationships were performed using Clampfit 9.2 (Axon Instruments, Union City, Calif.). Recordings were digitized (10 kHz) online with Digidata-1200 interface card (Axon Instruments, Union City, Calif.) and analyzed offline with Axon package, MiniAnalysis (S (Synaptsoft, Decatur, Ga.), and Origin (Microcal Software, Northampton, Mass.).\nBumetanide (10 μM), Oxytocin (1 μM) and Isoguvacine (2 μM) were directly added to the perfusion solutions. Bumetanide pretreatment (2-2.5 mg/kg) was given to the dams in drinking water. All drugs used were purchased from Sigma. SSR126768A (Sanofi-Synthelabo) pretreatment (1 mg/kg) was given to the dams in drinking water.\nIf the polarity of GABA actions at delivery produces long terms effects in offsprings, then restoring low [Cl^−]i and inhibitory GABA at delivery might restore physiological parameters in juvenile rodents. To test this hypothesis, pregnant females were treated orally 1 day before delivery with bumetanide (2-2.5 mg/kg in drinking water) and juvenile offspring neurons recorded at P15. […] In VPA rats, GABAergic inputs are excitatory and contribute to hyperexcitability of the network. Bumetanide decreases [Cl^−]i and consequently reduces contribution of excitatory GABAergic inputs in the overall network activity."}}, "note": "Entries after “also recorded” stand apart in the source; their conditions may differ."}
{"smiles": "CCCCNc1cc(C(=O)O)cc(S(N)(=O)=O)c1Oc1ccccc1", "note": "[bumetanide]", "values": [{"measurement": "sEPSCs frequency", "setting": "[1]", "result": "decreases; also recorded: significantly reduced"}, {"measurement": "DFGABA values in offsprings", "setting": "[2]; P15 VPA offspring, maternal bumetanide pretreatment, result in words", "result": "restored control DFGABA values"}, {"measurement": "DFGABA (mV), mean ± S.E.", "setting": "[2]", "result": "0.4±1.1", "unit": "mV"}, {"measurement": "DFGABA (mV), mean ± S.E.", "setting": "[2]; listed as BUM", "result": "0.4 ± 1.1 (n = 58) mV"}]}
